Laboratory results reported in US8993606B2, “Oral formulations for treating metal overload” (FerroKin BioSciences, Inc., priority 2011, dated 2015).
Where two headings read alike, the source gives them in different places.

Tests used:
[1] = Example 6: multiple-dose study in iron-overloaded human subjects (PK); assay type: in vivo; details: for half-life / Tmax / CL renal / Cmax / AUC(0-t) / Vd/F: both sexes, human, plasma; for AUC(0-t): read-out: AUC(0 - 24); for Vd/F: read-out: Vz/F
Excerpt: Example 6 was a multiple-dose, escalating study in iron-overloaded subjects conducted at 5 centers in the US, Australia, and Thailand.
Men and women at least 18 years of age qualified to participate if they were able to voluntarily give consent and had transfusional overload requiring treatment with an iron chelator and were willing to discontinue their chelation for a period of at least 5 days prior to screening and during the study for a total of up to 35 days. […] The mean of each subject's last 3 pre-transfusion hemoglobin levels (prior to screening) was ≧7.5 g/dL and their serum ferritin was >400 ng/mL. Subjects also agreed to use an approved method of contraception during the study.
The study enrolled 20 subjects with the following primary diagnoses requiring chronic transfusions:
• 2 β-thalassemia major • 2 sickle cell anemia Cohort 2 (8 mg/kg): • 1α-thalassemia major (α°/α°) • 2 β-thalassemia major • 1 congenital dyserythropoietic anemia Cohort 3 (16 mg/kg): • 4 β-thalassemia major Cohort 4 (32 mg/kg): • 1 α-thalassemia major)(α°/α° • 2 β-thalassemia/hemoglobin E • 1 sickle cell anemia Cohort 5 (40 mg/kg): • 2 β-thalassemia major • 2 β-thalassemia/hemoglobin E

[2] = tested on: healthy subjects; assay: Safety: single-dose study in healthy subjects (30-75 mg/kg, 20 mg/kg bid); assay type: in vivo
Description: This was a single-center, double-blind, placebo-controlled study of ascending single oral doses of Compound 1. Six cohorts of 8 subjects (30 and 50 mg/kg single doses) or 5 subjects (40, 60, and 75 mg/kg single doses and 20 mg/kg×2 doses at 12 hour intervals) were dosed sequentially with Compound 1. Within each cohort, 7 or 4 subjects received Compound 1 and 1 subject received placebo. Subjects in the 20 mg/kg×2 doses cohort received a dose the evening prior to the study day (Day −1), approximately 12 hours prior to dosing on Day 1. The dose administered on Day −1 followed a 2-hour fast and that on Day 1 a 10-hour fast.
Thirty-one subjects were enrolled and completed the study: 26 received a single oral dose of Compound 1 [30 (7 subjects), 40 (4 subjects), 50 (7 subjects), 60 (4 subjects) and 75 mg/kg (4 subjects)], 4 subjects previously administered a single dose at 30 and 40 mg/kg received 20 mg/kg bid and 5 received placebo. […] Treatment-emergent adverse events were reported for 13 of the 26 subjects receiving Compound 1 (50%). TEAEs in the active groups included catheter site erythema or hematoma (3 subjects), fatigue (1 subject), headache (2 subjects), dysgueusia (1 subject), presyncope (1 subject), abdominal pain (1 subject), nausea (1 subject), back pain (1 subject), muscle spasm (1 subject), decreased appetite (1 subject), chromaturia (1 subject).

[3] = tested on: iron-overloaded subjects; assay: Safety: multiple-dose study in iron-overloaded subjects; assay type: in vivo, human
Description: Twenty iron-overloaded subjects were enrolled and completed the study. Four subjects in each cohort were orally administered 3, 8, 16, or 32 or 40 mg/kg/day of Compound 1 for 7 consecutive days.

[4] = 3 mg/kg/day, 7 days oral, N = 4
[5] = 8 mg/kg/day, 7 days oral, N = 4
[6] = 16 mg/kg/day, 7 days oral, N = 4
[7] = 32 mg/kg/day, 7 days oral, N = 2
[8] = 32 mg/kg/day, 7 days oral, N = 4
[9] = 40 mg/kg/day, 7 days oral, N = 4
[10] = single oral dose 30-75 mg/kg, 20 mg/kg bid

COCCOCCOCCOc1cccc(C2=N[C@@](C)(C(=O)O)CS2)c1O [Compound 1, (S)-4,5-Dihydro-2-[2-hydroxy-3-(3,6,9-trioxadecyloxy)phenyl]-4-methyl-4-thiazolecarboxylate magnesium hydroxide]
CL/F [1, 4]: 162 ± 85.0 mL/min
Fe(0-24) [1, 4]: 44.0 ± 16.0 % oral dose
Ue(0-24) [1, 4]: 66.1 ± 24.0 mg
λz [1, 4]: 0.0655 ± 0.0606 h⁻¹
CL/F [1, 5]: 225 ± 142 mL/min
Fe(0-24) [1, 5]: 47.2 ± 13.8 % oral dose
Ue(0-24) [1, 5]: 201 ± 68.1 mg
λz [1, 5]: 0.0424 ± 0.0249 h⁻¹
CL/F [1, 6]: 206 ± 78.4 mL/min
Fe(0-24) [1, 6]: 39.2 ± 5.86 % oral dose
Ue(0-24) [1, 6]: 402 ± 103 mg
λz [1, 6]: 0.0421 ± 0.0246 h⁻¹
λz [1, 7]: 0.0381 ± 0.0091^a hr^−1
CL/F [1, 8]: 172 ± 60.1 mL/min
Fe(0-24) [1, 8]: 43.1 ± 15.8 % oral dose
Ue(0-24) [1, 8]: 641 ± 208 mg
CL/F [1, 9]: 223 ± 23.6 mL/min
Fe(0-24) [1, 9]: 48.4 ± 14.0 % oral dose
Ue(0-24) [1, 9]: 905 ± 247 mg
λz [1, 9]: 0.0544 ± 0.0071 h⁻¹
time of maximum plasma concentrations, mean ([1]; after 7 days of daily dosing): 1.24 h
time of maximum plasma concentrations, range ([1]; after 7 days of daily dosing, 3-40 mg/kg/day): 1.0 to 1.49 h
half-life ([1]; oral, across 5 cohorts, read-out: mean t1/2, range): 12.9 to 21.3 h
Tmax ([1]; oral, across 5 cohorts, read-out: median values for tmax, range): 1 to 1.49 h
CL renal [1, 4]: 75.2 ± 46.8 mL/min
Cmax [1, 4]: 5910 ± 2300 ng/mL
AUC(0-t) [1, 4]: 19500 ± 11300 ng·h/mL
half-life ([1]; 3 mg/kg/day, 7 days oral, N = 4, read-out: T1/2 (converted)): 16.2 ± 8.32 h
Vd/F [1, 4]: 185 ± 84.1 L
Tmax ([1]; 3 mg/kg/day, 7 days oral, median, read-out: tmax): 1.31 h
CL renal [1, 5]: 105 ± 62.9 mL/min
Cmax [1, 5]: 15000 ± 4440 ng/mL
AUC(0-t) [1, 5]: 44900 ± 30800 ng·h/mL
half-life ([1]; 8 mg/kg/day, 7 days oral, N = 4, read-out: T1/2 (converted)): 20.9 ± 11.3 h
Vd/F [1, 5]: 311 ± 137 L
Tmax ([1]; 8 mg/kg/day, 7 days oral, median, read-out: tmax): 1.18 h
CL renal [1, 6]: 83.2 ± 3600 mL/min
Cmax [1, 6]: 38200 ± 3950 ng/mL
AUC(0-t) [1, 6]: 92300 ± 36600 ng·h/mL
half-life ([1]; 16 mg/kg/day, 7 days oral, N = 4, read-out: T1/2 (converted)): 21.3 ± 11.8 h
Vd/F [1, 6]: 339 ± 166 L
Tmax ([1]; 16 mg/kg/day, 7 days oral, median, read-out: tmax): 1 h
half-life ([1]; 32 mg/kg/day, 7 days oral, N = 2, read-out: T1/2 (converted)): 18.7 h
Vd/F [1, 7]: 214 L
CL renal [1, 8]: 73.6 ± 37.8 mL/min
Cmax [1, 8]: 68200 ± 27500 ng/mL
AUC(0-t) [1, 8]: 158000 ± 43500 ng·h/mL
Tmax ([1]; 32 mg/kg/day, 7 days oral, median, read-out: tmax): 1.49 h
CL renal [1, 9]: 107 ± 26.2 mL/min
Cmax [1, 9]: 68600 ± 11000 ng/mL
AUC(0-t) [1, 9]: 141000 ± 8070 ng·h/mL
half-life ([1]; 40 mg/kg/day, 7 days oral, N = 4, read-out: T1/2 (converted)): 12.9 ± 1.68 h
Vd/F [1, 9]: 249 ± 40.4 L
Tmax ([1]; 40 mg/kg/day, 7 days oral, median, read-out: tmax): 1.26 h
subjects with treatment-emergent adverse events ([2]; 13 of the 26 subjects): 50%
TEAE abdominal pain ([2]; active groups, 26 subjects): 1 subject
TEAE back pain ([2]; active groups, 26 subjects): 1 subject
TEAE catheter site erythema or hematoma ([2]; active groups, 26 subjects): 3 subjects
TEAE chromaturia ([2]; active groups, 26 subjects): 1 subject
TEAE decreased appetite ([2]; active groups, 26 subjects): 1 subject
TEAE dysgueusia ([2]; active groups, 26 subjects): 1 subject
TEAE fatigue ([2]; active groups, 26 subjects): 1 subject
TEAE headache ([2]; active groups, 26 subjects): 2 subjects
TEAE muscle spasm ([2]; active groups, 26 subjects): 1 subject
TEAE nausea ([2]; active groups, 26 subjects): 1 subject
TEAE presyncope ([2]; active groups, 26 subjects): 1 subject
intensity of all AEs ([2]; after treatment): mild intensity
serious side effects in humans ([2]; daily dose higher than 40 mg/kg of body weight): no serious side effects were observed
deaths, SAEs, withdrawals due to AEs [2, 10]: no deaths, SAEs), or withdrawals due to AEs
tolerability [2, 10]: well tolerated
TEAE QT prolonged ([3]; 1 subject): 5%
TEAE abdominal pain upper ([3]; 1 subject): 5%
TEAE blood urine present ([3]; 1 subject): 5%
TEAE chromaturia ([3]; 1 subject): 5%
TEAE dizziness ([3]; 1 subject): 5%
TEAE feeling hot ([3]; 1 subject): 5%
TEAE pruritus ([3]; 1 subject): 5%
TEAE tachycardia ([3]; 1 subject): 5%
TEAE flatulence ([3]; 2 subjects): 10%
tolerability ([3]; 3, 8, 16, 32 or 40 mg/kg/day for 7 consecutive days): generally well tolerated
TEAE headache ([3]; 5 subjects): 25%
TEAE urine color abnormal ([3]; 8 subjects, related to study drug): 40%
subjects with at least 1 TEAE ([3]; 20 subjects, majority mild and unrelated to study drug): 90%
QTcB interval prolongation ([3]; one subject, Day 7 of treatment, not observed with QTcF): 20 ms
SAE recorded ([3]; subject at 3 mg/kg/day, sickle cell crisis, not related to treatment): 1 SAE
